Test [1] deals with blood glucose and plasma insulin levels. The test is described as follows: Blood glucose and plasma insulin in tumor bearing nude rats. Type of test: in vivo. On the procedure: (§1) [13] […] [13] […] CLR457 antitumor activity was then evaluated as described previously. […] (Supplemental Methods).
Test [2] concerns the target PIK3CA H1047R (kinase domain mutation) (Homo sapiens, UniProt P42336, H1047R). Put plainly: In vitro profiling, PIK3CA mutant isoform H1047R. Type of test: biochemical. Particulars: data not shown.
The test system of another test is Rat1-myr-p110α tumors. The test is described as follows: Rat1-myr-p110α tumor xenograft in nude mice. Type of test: in vivo. Here is the method:
as §1
The significant level was set at p < 0.05.

Test [3] addresses PIK3CA E545K (helical domain mutation) (Homo sapiens, UniProt P42336, E545K). Put plainly: In vitro profiling, PIK3CA mutant isoform E545K. In kind it is biochemical. As to conditions: data not shown.

The structures appear in SMILES notation.

Chain of PIK3CA H1047R (kinase domain mutation) (P42336 21-1068 H1047R limits assumed): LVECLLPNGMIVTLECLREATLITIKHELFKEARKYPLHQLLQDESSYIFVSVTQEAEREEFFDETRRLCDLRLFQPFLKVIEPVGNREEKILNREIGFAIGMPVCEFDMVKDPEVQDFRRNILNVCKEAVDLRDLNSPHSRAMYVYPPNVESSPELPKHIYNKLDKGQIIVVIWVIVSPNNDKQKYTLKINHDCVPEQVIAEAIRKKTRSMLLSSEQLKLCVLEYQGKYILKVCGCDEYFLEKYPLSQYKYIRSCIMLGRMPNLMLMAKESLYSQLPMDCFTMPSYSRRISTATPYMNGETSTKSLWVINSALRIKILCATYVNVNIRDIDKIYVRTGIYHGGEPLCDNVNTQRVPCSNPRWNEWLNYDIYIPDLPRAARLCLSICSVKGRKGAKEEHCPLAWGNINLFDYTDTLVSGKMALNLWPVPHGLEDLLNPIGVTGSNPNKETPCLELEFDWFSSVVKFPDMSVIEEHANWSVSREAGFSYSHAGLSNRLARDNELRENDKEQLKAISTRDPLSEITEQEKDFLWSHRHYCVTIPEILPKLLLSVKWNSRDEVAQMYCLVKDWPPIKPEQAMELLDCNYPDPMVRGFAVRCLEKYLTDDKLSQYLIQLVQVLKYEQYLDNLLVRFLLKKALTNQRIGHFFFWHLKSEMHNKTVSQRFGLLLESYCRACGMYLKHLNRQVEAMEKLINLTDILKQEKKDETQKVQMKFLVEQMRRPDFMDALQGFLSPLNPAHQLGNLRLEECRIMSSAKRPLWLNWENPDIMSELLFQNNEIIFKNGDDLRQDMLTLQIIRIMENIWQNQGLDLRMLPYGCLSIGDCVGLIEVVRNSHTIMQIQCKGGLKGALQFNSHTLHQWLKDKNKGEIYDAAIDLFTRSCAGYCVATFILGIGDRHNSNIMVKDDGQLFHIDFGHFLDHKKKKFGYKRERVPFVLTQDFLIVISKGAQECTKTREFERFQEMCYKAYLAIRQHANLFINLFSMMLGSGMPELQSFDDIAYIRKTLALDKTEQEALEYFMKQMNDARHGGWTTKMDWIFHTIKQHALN
Chain of PIK3CA H1047R (kinase domain mutation) (P27986 461-568 partner limits assumed): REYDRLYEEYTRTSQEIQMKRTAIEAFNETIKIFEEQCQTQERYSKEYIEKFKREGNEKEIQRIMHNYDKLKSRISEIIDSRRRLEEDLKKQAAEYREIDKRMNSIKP
Chain of PIK3CA E545K (helical domain mutation) (P42336 21-1068 E545K limits assumed): as the sequence (P42336 21-1068 H1047R limits assumed) above, with E525K, R1027H counted along it
Chain of PIK3CA E545K (helical domain mutation) (P27986 461-568 partner limits assumed): as the sequence (P27986 461-568 partner limits assumed) above

As for `C[C@H]1OC(=O)N(c2cc(-c3cnc(N)nc3C(F)(F)F)nc(N3CCOCC3)n2)[C@H]1CO` [CLR457], the Plasma insulin levels result in test [1] is reported as “increased proportionally to CLR457 concentration”. In test [1] (at the dose necessary for tumor regression), the Blood glucose levels result is recorded as “moderately perturbed”. In addition, in test [2], the “Inhibition of PIK3CA mutant isoform H1047R” value is recorded as “inhibited”. The “Dose at which tumor regression occurred” value with Rat1-myr-p110α tumors stood at 20 mg/kg BID. Further, in test [3], the “Inhibition of PIK3CA mutant isoform E545K” value is given as “inhibited”.
